{"source": "ChEMBL document CHEMBL3751851", "about": "“Antileukemic activity of lignans and phenylpropanoids of Cinnamomum parthenoxylon” (Bioorg Med Chem Lett, 2016)", "key": {"[1]": {"experiment": "Cytotoxicity against human HL60 cells after 48 hrs by CCK8 assay", "type": "functional, cell-based", "details": "HL-60, 48 h"}, "[2]": {"experiment": "Cytotoxicity against human U937 cells after 48 hrs by CCK8 assay", "type": "functional, cell-based", "details": "U-937, 48 h"}, "[3]": {"tested_on": "HL-60", "experiment": "Induction of apoptotic morphological changes in human HL60 cells at 50 uM after 48 hrs by Hoechst 33342 staining", "type": "functional, cell-based"}, "[4]": {"tested_on": "U-937", "experiment": "Induction of apoptotic morphological changes in human U937 cells at 50 uM after 48 hrs by Hoechst 33342 staining", "type": "functional, cell-based"}, "[5]": {"tested_on": "Huh-7", "experiment": "Induction of apoptosis in human HuH7 cells assessed as increase of casapase-3 activity after 1 hr by DEVD-pNA cleavage assay relative to control", "type": "functional"}}, "note": "Active and inactive are the calls of the source. The rule behind the calls is not given here."}
{"molecule": "OC1OC[C@H](Cc2ccc3c(c2)OCO3)[C@H]1Cc1ccc2c(c1)OCO2", "note": "(stereo partly specified)", "values": [{"measurement": "IC50", "setting": "[1]", "value": 38.2, "unit": "µM"}, {"measurement": "IC50", "setting": "[2]", "value": 15.7, "unit": "µM"}, {"measurement": "Activity", "setting": "[3]", "value": "Active"}, {"measurement": "Activity", "setting": "[4]", "value": "Active"}]}
{"molecule": "OCC(O)Cc1ccc2c(c1)OCO2", "note": "(stereo unspecified) [SAFROLGLYCOL]", "values": [{"measurement": "IC50", "setting": "[1]", "value": 60, "unit": "µM"}, {"measurement": "IC50", "setting": "[2]", "value": 50.8, "unit": "µM"}]}
{"molecule": "C=CCc1ccc2c(c1)OCO2", "note": "[SAFROLE]", "values": [{"measurement": "IC50", "setting": "[1]", "value": 53.2, "unit": "µM"}, {"measurement": "IC50", "setting": "[2]", "value": 52.3, "unit": "µM"}]}
{"molecule": "O=C1OC[C@H](Cc2ccc3c(c2)OCO3)[C@H]1Cc1ccc2c(c1)OCO2", "note": "[HINOKININ]", "values": [{"measurement": "IC50", "setting": "[1]", "value": 31.3, "unit": "µM"}, {"measurement": "IC50", "setting": "[2]", "value": 10.4, "unit": "µM"}, {"measurement": "Activity", "setting": "[3]", "value": "Active"}, {"measurement": "Activity", "setting": "[4]", "value": "Active"}, {"measurement": "fold change (FC)", "setting": "[5]", "value": 2}]}
{"molecule": "c1cc2c(cc1C[C@H]1COC[C@@H]1Cc1ccc3c(c1)OCO3)OCO2", "values": [{"measurement": "IC50", "setting": "[1]", "value": 51.1, "unit": "µM"}, {"measurement": "IC50", "setting": "[2]", "value": 40.2, "unit": "µM"}, {"measurement": "Activity", "setting": "[4]", "value": "Active"}]}
